Our source for the melting point values is a melting point compilation (Tetko et al.; mined from patent text by program, amines drawn as free bases though some values may be those of a salt).

The term melting point denotes the temperature, or range, at which the solid turns liquid. On to `OC1CSC(Oc2cccc(-c3ccc(Cl)nc3)c2)C(O)C1O` (configuration not stated), for which the melting point is 189 °C.

Consider `COC(=O)[C@H](Cc1ccc(OCCN2CCC(O)(c3ccccc3)CC2)cc1)NC(=O)[C@@H]1CCCN1S(=O)(=O)c1ccc(C)cc1`, for which the melting point lay within 122 to 123 °C.

The molecule `Nn1nc(-c2ccc(Cl)cc2)cc1OCCN1CCOCC1` gave a melting point of 120 to 121 °C.

Consider `Nc1cc(N2CCNCC2)ccc1S(=O)(=O)c1ccc(F)cc1`, for which the melting point was in the range of 144 to 146 °C.

As to `CC(O)(C#Cc1ccc(C(=O)c2ccccc2)cc1)C(F)(F)F` (configuration not stated), the melting point lay in the range of 94.5 to 96 °C.

Molecule `COC(=O)C1=CNC=Cc2c1n(C)c1ccccc21` returned a melting point of 131 to 132 °C.

As for `O=C1CCCC(=O)N1c1cc(Cc2n[nH]c(=O)c3ccccc23)ccc1F`, the melting point lay in the range of 259 to 263 °C.

As to `CCCc1c(OCCCOc2ccc(C(C)=O)c(OCc3ccccc3)c2CCC)ccc2c1OC(CO)CC2` (configuration not stated), the melting point lay in the range of 83 to 85 °C.

As for `COc1ccc(Cl)cc1C1(F)C(=O)Nc2c(C(F)(F)F)cccc21` (configuration not stated), the melting point fell in the range of 230 to 233 °C.

`CCOC(=O)Cc1sc(Sc2nccc(C)c2C(=O)OCC)nc1C`: the melting point fell in the range of 85 to 87 °C.

On to `CCOC(=O)C(=O)c1c[nH]c2ccc(CNS(C)(=O)=O)cc12`, for which the melting point lay in the range of 218 to 220 °C.

`Cc1ccc(-c2c3n(c(=O)c4ncccc24)CCN(Cc2cc(C(F)(F)F)cc(C(F)(F)F)c2)C3=O)cc1` yielded a melting point of 270 to 271 °C.

Turning to `O=C(NCCCc1ccc(CC(CCCc2ccccc2)(C(=O)OCc2ccccc2)C(=O)OCc2ccccc2)cc1)c1ccc(-c2ccccn2)cc1`, the melting point is 118 to 120 °C.

Take `Cc1nc(C(F)(F)F)ccc1C(=O)C1=C(Sc2ccccc2)CCCC1=O`: the melting point lay in the range of 124 to 125 °C.

Turning to `CC(=O)SCC12CCC3(CC1=CCC1C2CCC2(C)C(C(C)=O)CCC12)OCCO3` (configuration not stated), the melting point fell in the range of 151 to 153 °C.

Take `CC(C)(NC(=O)c1nnc2ccc(OCCCN3CCC(OC(c4ccccc4)c4ccccc4)CC3)nn12)C(=O)O`: the melting point lay in the range of 163 to 165 °C.

In turn, `CC12CC(N3CCOCC3)C(O)CC1CCC1C2CCC2(C)C(O)C(N3CCCCC3)CC12` (configuration not stated) showed a melting point of 222 to 229 °C.

The molecule `CC(=O)C1=CCC2C3CCC4CC(O)CCC4(C)C3CC(O)C12C` (configuration not stated) registered a melting point of 203 to 205 °C.

Turning to `N#Cc1ccc(OCCCN2CCC(C(O)(c3ccc(F)cc3)c3ccc(F)cc3)CC2)cc1`, the melting point fell in the range of 107 to 108 °C.

On to `CC(=O)c1cccc(-c2ncc(OCCCN(C)C)cn2)c1`, for which the melting point is 61 to 62 °C.

As to `CCOC(=O)COc1cccc2c1CCc1sc(SC(c3ccccc3)c3ccccc3)nc1-2`, the melting point is 124 to 126 °C.

Regarding `NC1NC=CN1c1ccncc1` (configuration not stated), the melting point amounted to 190 °C.

`O=c1c2cc(F)c(N3CCCC3)cc2n(-c2ccc(F)cc2F)c(=O)n1O`: the melting point was 232 to 234 °C.

For the molecule `CSc1nc(O)nn1-c1ccccc1`, the melting point lay in the range of 176 to 177 °C.

`O=C(NCc1ccc([N+](=O)[O-])cc1)OCc1ccccc1` came in with a melting point of 92 to 93 °C.

Regarding `CCOC(=O)c1nnn(-c2ccc(C3=NNC(=O)NC3C)cc2)c1C(=O)OCC` (configuration not stated), the melting point was 156 to 158 °C.

With `COc1cc(N2CCN([C@H]3CC[C@H](c4cn(C)c5ccc(C#N)cc54)CC3)CC2)c2nccc(C)c2c1`, the melting point lay in the range of 230 to 232 °C.

Turning to `CCN(CC)C(=O)Nc1ccc(S(=O)(=O)Cl)cc1`, the melting point lay within 148 to 150 °C.

With `CCCCCCC(O)CNCC(O)CO` (configuration not stated), the melting point fell in the range of 85 to 90 °C.

In turn, `N#Cc1c[nH]c(Cl)c1-c1cccc(F)c1` showed a melting point of 158 to 161 °C.

The molecule `CCn1c(C(O)(Cc2ccccc2)Cc2ccccc2)nc(-c2ccncc2)c1-c1ccc(Cl)cc1` displayed a melting point of 116 to 117 °C.

With `Nc1nc(N)nc(-c2ccc(C(O)c3ccccc3)cc2)n1` (racemic), the melting point lay within 214 to 216 °C.

Molecule `CCOC(=O)Cc1c(C(=O)CC)sc2[nH]c(C(=O)CC)cc12` showed a melting point of 147 to 148 °C.

For the molecule `Cc1cc(-n2nc(C(F)(F)F)cc2-c2ccc(-c3ccco3)cc2)ccc1S(N)(=O)=O`, the melting point worked out at 137 °C.

With `CNc1cncc(C(F)(F)F)c1`, the melting point is 69 to 70 °C.

`N#Cc1ccc2c(c1)NC(=O)C2c1ncnc2c1cnn2C1CCCC1` (configuration not stated): the melting point is 335 to 338 °C.

The molecule `Cc1cc(C#N)sc1Br` showed a melting point of 40 to 42 °C.

`CC[C@@H]1O[C@](C#CC2CC2)(C(F)(F)F)c2c(ccc3c2OCO3)NC1=O` (relative stereo) displayed a melting point of 201 to 202 °C.

Turning to `CCOC(=O)Cc1cccc(OCc2ccc3oc([N+](=O)[O-])c(-c4ccccc4)c3c2)c1`, the melting point was 67 to 68 °C.

As for `N#Cc1cc(-c2ccc3c(c2)C2(CCCC2)C(=O)N3)ccc1F`, the melting point lay in the range of 264 to 266 °C.

The molecule `O=C(Nc1ccccc1-c1ccccc1)OCCCC(=O)c1ccccc1` showed a melting point of 87 to 89 °C.

`COC(=O)c1ccc(O)c(C(=O)CC(=O)c2cc(C)ccc2OC(C)C)c1` registered a melting point of 85 to 86 °C.

Molecule `CCCn1ncnc1COc1nn2c(-c3ccccc3F)nncc2c1C(C)(C)C` gave a melting point of 93 °C.

With `CC(C)n1nc(-c2c(NCCN(C)C)nc(N)nc2-c2ccccc2)ccc1=O`, the melting point fell in the range of 164 to 166 °C.

Molecule `N#Cc1cc(-c2c(C(N)=O)ccn2-c2ccc(F)cc2)ccc1OCC(F)(F)F` had a melting point of 227 to 228 °C.

`O=C(C=CCN1CCC(O)(c2ccc(Cl)cc2)CC1)c1ccc(F)cc1` showed a melting point of 97 to 97.5 °C.

`O=C1CC(OCc2ccccc2)C2COC1O2` (configuration not stated) showed a melting point of 118 to 119 °C.

Take `NC(=O)CNC(=O)c1cccc(-c2ccc(F)c3cc(Cc4cccc(C(F)(F)F)c4)sc23)c1`: the melting point fell in the range of 157 to 158 °C.

For the molecule `O=S(=O)(Nc1ccccc1OCCCN1CCC(OC(c2ccccc2)c2ccccc2)CC1)c1ccccc1`, the melting point is 131 to 132 °C.

Take `CCCC(=O)c1c[nH]c2c(OC)csc2c1=O`: the melting point was 222 to 225 °C.

In turn, `CC(C)C[C@H](NS(=O)(=O)c1cccnc1)C(=O)N[C@@H](C(C)C)[C@@H](O)c1c(-c2ccccc2)c1=O` displayed a melting point of 110 to 112 °C.

`CCC(=O)NCC[C@@H]1CCc2cc(Br)c3c(c21)CCO3`: the melting point was 129 to 131 °C.

For the molecule `Cc1ncc(CCC(=O)O)s1`, the melting point came out at 120 °C.

Turning to `CCOC(=O)CNC(=O)CCCCCNC(=O)OC(C)(C)C`, the melting point lay in the range of 76 to 77 °C.

Turning to `CCN1CCC2(c3cccc(OC)c3)Cc3[nH]c(C(N)=O)c(C)c3CC2C1` (configuration not stated), the melting point lay within 176 to 178 °C.

Turning to `CC(=NO)c1ccc2c(c1)CCCN2C(=O)OC(C)(C)C`, the melting point lay within 127 to 129 °C.

Molecule `Cc1ccc(C(C)C)c2oc(SCCN3CCN(CC(=O)Nc4c(C(C)C)cccc4C(C)C)CC3)nc12` showed a melting point of 133 to 134 °C.

`CCOC(=S)C(C)Cc1ccc(OCC(=O)O)cc1` (configuration not stated) gave a melting point of 77 to 78 °C.

`Cn1cnc2nc(-c3ccc(Cl)cn3)nn2c1=S` came in with a melting point greater than 300 °C.

Consider `O=Cc1cc(-c2ccc(F)cc2Cl)ccc1OC(F)(F)F`, for which the melting point worked out at 64 °C.

In turn, `CN(C)c1nc(Nc2cc(C(=O)NC3CCC3)n[nH]2)c2occc2n1` had a melting point of 250 °C.

Molecule `O=C1CCN(c2ccccc2)N1CN1C(=O)c2ccccc2S1(=O)=O` showed a melting point of 209 to 213 °C.

As to `Cc1cc2c(s1)SCC1CC(=O)N(c3ccc(Cl)cc3)N=C21` (configuration not stated), the melting point was in the range of 142 to 144 °C.

`O=C1c2ccccc2-c2ccccc2C1(O)C(F)(F)F` (configuration not stated) came in with a melting point of 148 to 151 °C.

`CCN(CC)C(=O)c1nc(C=Cc2ccc(OC)cc2)no1` gave a melting point of 69 to 70 °C.

As to `O=C(C(Cl)Cl)N1CCCCCCC1`, the melting point was determined as 83 °C.

Turning to `Cc1ccc(C(=O)Nc2ccc(C[C@H](NC(=O)Nc3ccccc3S(=O)(=O)c3ccccc3)C(=O)O)cc2)c(Cl)n1`, the melting point is 210 °C.

`CNC(=O)C(=NOC)c1cccc(Cl)c1COc1cc(C(F)(F)F)nc(OC(C)C)n1` came in with a melting point of 116 to 118 °C.

`COc1ccc(/C=C/c2nc3ccccc3c(=O)o2)cc1OC(C)=O` displayed a melting point of 187 to 190 °C.

The molecule `CCOC(=O)c1cc2c3n(ccc-2n1)CC(C)=N3` yielded a melting point of 201 to 203 °C.

For the molecule `Cc1ccc(O)c(Cn2c(NC3CCNC(CCN4CCOCC4)C3)nc3ccc(C=Cc4ccccc4)cc32)n1` (configuration not stated), the melting point was determined as 224 °C.

The molecule `CCOC(=O)c1[nH]c2cc(Cl)c(Cl)cc2c1-c1ccc(Cl)cc1Cl` returned a melting point of 160 to 161 °C.

In turn, `c1ccc(CSc2nc3cc4ccccc4cc3[nH]2)nc1` returned a melting point of 170 °C.

Regarding `Cc1cc(=O)c(OCc2ccccc2)c(C(=O)O)o1`, the melting point was 173 to 175 °C.

For `C[C@](O)(COc1ccc(Cl)cc1)C(=O)Nc1ccc(C#N)c(C(F)(F)F)c1`, the melting point lay within 146 to 148 °C.

The molecule `O=C(O)Cc1ccc(NC(=O)C(COc2ccccc2Cl)NS(=O)(=O)c2ccc(I)cc2)cc1` (racemic) yielded a melting point of 198 to 200 °C.

For the molecule `Cc1cc(O)n2nc(CN=[N+]=[N-])nc2n1`, the melting point lay in the range of 193 to 194 °C.

Molecule `COc1ccccc1SCC1SCCN1C(=S)CC(C)=O` (configuration not stated) had a melting point of 62 to 64 °C.

Molecule `COc1cc(Nc2c(C#N)cnc3cc(Br)ccc23)c(Cl)cc1Cl` registered a melting point of 192 to 193 °C.

Consider `COc1ccc(C(=O)Sc2ccc(C(=O)O)cc2)cc1C(C)(C)C`, for which the melting point lay in the range of 220 to 221 °C.

Molecule `CCOC(=O)c1c(C=O)c2ccc3sc4ccccc4c3c2n1C` yielded a melting point of 145 to 147 °C.

`COc1ccc(CSCC(=O)NO)cc1` showed a melting point of 107 °C.

The molecule `COc1cc(OC)cc(N2CCN(C(=S)Nc3cc(C(C)=O)c(C)nc3OC)CC2)c1` had a melting point of 167 to 169 °C.

Molecule `C=CCOC(=O)C1=C(C)NC(C)=C(C(=O)OC)C1c1cc(Br)c(OC)c(OC)c1` (configuration not stated) gave a melting point of 123 to 124 °C.

In turn, `O=[N+]([O-])c1ccc(NCCS(=O)(=O)NCCCOc2cccc(CN3CCCCC3)c2)cc1` came in with a melting point of 140 to 142 °C.

`COc1ccc(-c2ccc(C(=O)O)c(C(=O)O)c2)c2c1OCCO2`: the melting point fell in the range of 192 to 196 °C.

Molecule `CC1(C)OC(=O)N[C@@H]1c1ccccc1` yielded a melting point of 149 °C.
